Measured values reported in patent US20070015770A1 (priority 2003, published 2007).
Where two headings read alike, the source gives them in different places.

System: Pyricularia oryzae
Assay type: in vivo
Conditions: individual active compound, rice seedlings Tai-Nong 67, protective spray, evaluated 6 days after inoculation

Structure (SMILES): COCC(=O)N(c1c(C)cccc1C)[C@H](C)C(=O)OC [II (metalaxyl-M), methyl N-(methoxyacetyl)-N-(2,6-xylyl)-D-alaninate]
- Efficacy in % of the untreated control (4 ppm in the spray liquor): 0%

Structure (SMILES): C[C@H](Nc1c(-c2c(F)cc(F)cc2F)c(Cl)nc2ncnn12)C(F)(F)F [comparative compound B]
- Efficacy in % of the untreated control (1 ppm in the spray liquor): 4%
- Efficacy in % of the untreated control (4 ppm in the spray liquor): 40%

Structure (SMILES): CC1CCN(c2c(-c3c(F)cccc3Cl)c(Cl)nc3ncnn23)CC1 [comparative compound A]
- Efficacy in % of the untreated control (1 ppm in the spray liquor): 0%
- Efficacy in % of the untreated control (4 ppm in the spray liquor): 4%

Structure (SMILES): CC1CCN(c2c(-c3c(F)cc(F)cc3F)c(Cl)nc3ncnn23)CC1 [I, 5-chloro-7-(4-methylpiperidin-1-yl)-6-(2,4,6-trifluorophenyl)-[1,2,4]triazolo[1,5-a]pyrimidine]
- Efficacy in % of the untreated control (1 ppm in the spray liquor): 16%
- Efficacy in % of the untreated control (4 ppm in the spray liquor): 28%
